Experimental data published in ChEMBL document CHEMBL4014351, “Discovery of Allosteric Inhibitors Targeting the Spliceosomal RNA Helicase Brr2” (J Med Chem, 2017).
≈ marks a conversion by molar mass, not a printed value.

Assays:
[1] = physchem; conditions: 1-octanol/aqueous buffer, pH 7.4
[2] = molecular target: Eukaryotic initiation factor 4A-I (Homo sapiens, UniProt P60842)
Description: Inhibition of eIF4G-induced full length recombinant human N-terminal His6/SUMO-tagged eIF4A1 RNA dependent ATPase activity expressed in Escherichia coli BL21(DE3) using single stranded poly(U) RNA as substrate after 30 mins by ADP-Glo luminescence assay

[3] = physchem; conditions: PAMPA, pH 7.4
Description: Permeability of the compound at 10 uM at pH 7.4 after 3 hrs by PAMPA

[4] = physchem; conditions: aqueous buffer, pH 6.8
Description: Solubility of the compound in pH 6.8 aqueous buffer by UV absorbance method

[5] = molecular target: Eukaryotic initiation factor 4A-III (Homo sapiens, UniProt P38919)
Description: Inhibition of MLN51-induced full length recombinant human N-terminal His6/SUMO-tagged eIF4A3 RNA dependent ATPase activity expressed in Escherichia coli BL21(DE3) using single stranded poly(U) RNA as substrate after 30 mins by ADP-Glo luminescence assay

[6] = molecular target: T1, U5 small nuclear ribonucleoprotein 200 kDa helicase (Homo sapiens, UniProt O75643); experiment: biochemical
Description: Inhibition of full length recombinant human N-terminal His-tagged BRR2 RNA dependent ATPase activity expressed in baculovirus infected Sf9 cells using single stranded poly(U) RNA as substrate after 30 mins by ADP-Glo luminescence assay

[7] = molecular target: T2, ATP-dependent RNA helicase DHX29 (Homo sapiens, UniProt Q7Z478); experiment: biochemical
T2 sequence (Q7Z478 whole entry): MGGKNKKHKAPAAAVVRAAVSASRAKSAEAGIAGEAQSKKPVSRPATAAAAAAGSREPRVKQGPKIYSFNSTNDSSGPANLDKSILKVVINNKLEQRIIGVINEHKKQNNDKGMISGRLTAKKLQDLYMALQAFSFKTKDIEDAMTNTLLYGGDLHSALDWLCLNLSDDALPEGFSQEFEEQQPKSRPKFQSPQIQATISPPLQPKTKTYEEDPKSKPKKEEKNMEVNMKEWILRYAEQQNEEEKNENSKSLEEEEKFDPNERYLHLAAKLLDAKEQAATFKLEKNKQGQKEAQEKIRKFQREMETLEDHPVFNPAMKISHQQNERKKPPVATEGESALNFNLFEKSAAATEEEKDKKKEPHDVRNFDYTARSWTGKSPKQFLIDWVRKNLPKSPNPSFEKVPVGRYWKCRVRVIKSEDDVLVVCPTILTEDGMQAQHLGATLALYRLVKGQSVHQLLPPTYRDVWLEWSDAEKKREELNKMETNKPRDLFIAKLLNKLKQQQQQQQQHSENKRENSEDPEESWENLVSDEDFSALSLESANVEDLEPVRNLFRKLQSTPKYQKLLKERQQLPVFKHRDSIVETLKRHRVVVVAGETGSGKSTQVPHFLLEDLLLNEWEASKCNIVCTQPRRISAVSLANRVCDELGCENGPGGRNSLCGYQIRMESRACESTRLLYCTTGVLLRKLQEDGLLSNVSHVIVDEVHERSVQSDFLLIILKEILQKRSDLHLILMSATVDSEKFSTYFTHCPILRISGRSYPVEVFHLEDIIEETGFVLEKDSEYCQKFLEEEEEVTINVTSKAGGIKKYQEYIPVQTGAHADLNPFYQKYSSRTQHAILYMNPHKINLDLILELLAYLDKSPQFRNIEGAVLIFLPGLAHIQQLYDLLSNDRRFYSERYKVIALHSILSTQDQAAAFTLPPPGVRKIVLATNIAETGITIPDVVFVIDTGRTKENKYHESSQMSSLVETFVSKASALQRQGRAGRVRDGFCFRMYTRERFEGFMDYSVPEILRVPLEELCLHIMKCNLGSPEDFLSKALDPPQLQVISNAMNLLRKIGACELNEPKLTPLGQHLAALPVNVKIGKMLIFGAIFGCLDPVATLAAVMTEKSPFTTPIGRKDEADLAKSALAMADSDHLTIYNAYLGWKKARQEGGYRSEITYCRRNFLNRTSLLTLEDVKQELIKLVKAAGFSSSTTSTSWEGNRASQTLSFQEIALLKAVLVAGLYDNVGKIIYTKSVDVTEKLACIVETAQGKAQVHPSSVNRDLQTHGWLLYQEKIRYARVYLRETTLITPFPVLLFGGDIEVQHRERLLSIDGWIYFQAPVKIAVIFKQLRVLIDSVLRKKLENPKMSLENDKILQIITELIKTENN
Description: Inhibition of full length recombinant human N-terminal FLAG-His-tagged DHX29 RNA dependent ATPase activity expressed in baculovirus infected Sf9 insect cells using single stranded poly(U) RNA as substrate after 30 mins by ADP-Glo luminescence assay

[8] = molecular target: T1, U5 small nuclear ribonucleoprotein 200 kDa helicase; experiment: biochemical; remark: listed apart in the source

Eukaryotic initiation factor 4A-I, sequence (P60842 whole entry): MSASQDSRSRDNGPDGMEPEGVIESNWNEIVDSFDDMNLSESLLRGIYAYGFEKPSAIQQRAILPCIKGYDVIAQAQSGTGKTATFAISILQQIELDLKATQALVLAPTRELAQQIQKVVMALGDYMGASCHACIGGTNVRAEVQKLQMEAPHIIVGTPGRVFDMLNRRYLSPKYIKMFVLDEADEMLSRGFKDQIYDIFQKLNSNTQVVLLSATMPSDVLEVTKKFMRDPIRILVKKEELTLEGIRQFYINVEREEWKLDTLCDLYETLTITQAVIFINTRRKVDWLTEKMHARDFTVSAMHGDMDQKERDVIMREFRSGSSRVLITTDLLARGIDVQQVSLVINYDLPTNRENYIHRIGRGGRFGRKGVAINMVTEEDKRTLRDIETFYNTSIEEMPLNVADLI
T1 sequence (O75643 whole entry): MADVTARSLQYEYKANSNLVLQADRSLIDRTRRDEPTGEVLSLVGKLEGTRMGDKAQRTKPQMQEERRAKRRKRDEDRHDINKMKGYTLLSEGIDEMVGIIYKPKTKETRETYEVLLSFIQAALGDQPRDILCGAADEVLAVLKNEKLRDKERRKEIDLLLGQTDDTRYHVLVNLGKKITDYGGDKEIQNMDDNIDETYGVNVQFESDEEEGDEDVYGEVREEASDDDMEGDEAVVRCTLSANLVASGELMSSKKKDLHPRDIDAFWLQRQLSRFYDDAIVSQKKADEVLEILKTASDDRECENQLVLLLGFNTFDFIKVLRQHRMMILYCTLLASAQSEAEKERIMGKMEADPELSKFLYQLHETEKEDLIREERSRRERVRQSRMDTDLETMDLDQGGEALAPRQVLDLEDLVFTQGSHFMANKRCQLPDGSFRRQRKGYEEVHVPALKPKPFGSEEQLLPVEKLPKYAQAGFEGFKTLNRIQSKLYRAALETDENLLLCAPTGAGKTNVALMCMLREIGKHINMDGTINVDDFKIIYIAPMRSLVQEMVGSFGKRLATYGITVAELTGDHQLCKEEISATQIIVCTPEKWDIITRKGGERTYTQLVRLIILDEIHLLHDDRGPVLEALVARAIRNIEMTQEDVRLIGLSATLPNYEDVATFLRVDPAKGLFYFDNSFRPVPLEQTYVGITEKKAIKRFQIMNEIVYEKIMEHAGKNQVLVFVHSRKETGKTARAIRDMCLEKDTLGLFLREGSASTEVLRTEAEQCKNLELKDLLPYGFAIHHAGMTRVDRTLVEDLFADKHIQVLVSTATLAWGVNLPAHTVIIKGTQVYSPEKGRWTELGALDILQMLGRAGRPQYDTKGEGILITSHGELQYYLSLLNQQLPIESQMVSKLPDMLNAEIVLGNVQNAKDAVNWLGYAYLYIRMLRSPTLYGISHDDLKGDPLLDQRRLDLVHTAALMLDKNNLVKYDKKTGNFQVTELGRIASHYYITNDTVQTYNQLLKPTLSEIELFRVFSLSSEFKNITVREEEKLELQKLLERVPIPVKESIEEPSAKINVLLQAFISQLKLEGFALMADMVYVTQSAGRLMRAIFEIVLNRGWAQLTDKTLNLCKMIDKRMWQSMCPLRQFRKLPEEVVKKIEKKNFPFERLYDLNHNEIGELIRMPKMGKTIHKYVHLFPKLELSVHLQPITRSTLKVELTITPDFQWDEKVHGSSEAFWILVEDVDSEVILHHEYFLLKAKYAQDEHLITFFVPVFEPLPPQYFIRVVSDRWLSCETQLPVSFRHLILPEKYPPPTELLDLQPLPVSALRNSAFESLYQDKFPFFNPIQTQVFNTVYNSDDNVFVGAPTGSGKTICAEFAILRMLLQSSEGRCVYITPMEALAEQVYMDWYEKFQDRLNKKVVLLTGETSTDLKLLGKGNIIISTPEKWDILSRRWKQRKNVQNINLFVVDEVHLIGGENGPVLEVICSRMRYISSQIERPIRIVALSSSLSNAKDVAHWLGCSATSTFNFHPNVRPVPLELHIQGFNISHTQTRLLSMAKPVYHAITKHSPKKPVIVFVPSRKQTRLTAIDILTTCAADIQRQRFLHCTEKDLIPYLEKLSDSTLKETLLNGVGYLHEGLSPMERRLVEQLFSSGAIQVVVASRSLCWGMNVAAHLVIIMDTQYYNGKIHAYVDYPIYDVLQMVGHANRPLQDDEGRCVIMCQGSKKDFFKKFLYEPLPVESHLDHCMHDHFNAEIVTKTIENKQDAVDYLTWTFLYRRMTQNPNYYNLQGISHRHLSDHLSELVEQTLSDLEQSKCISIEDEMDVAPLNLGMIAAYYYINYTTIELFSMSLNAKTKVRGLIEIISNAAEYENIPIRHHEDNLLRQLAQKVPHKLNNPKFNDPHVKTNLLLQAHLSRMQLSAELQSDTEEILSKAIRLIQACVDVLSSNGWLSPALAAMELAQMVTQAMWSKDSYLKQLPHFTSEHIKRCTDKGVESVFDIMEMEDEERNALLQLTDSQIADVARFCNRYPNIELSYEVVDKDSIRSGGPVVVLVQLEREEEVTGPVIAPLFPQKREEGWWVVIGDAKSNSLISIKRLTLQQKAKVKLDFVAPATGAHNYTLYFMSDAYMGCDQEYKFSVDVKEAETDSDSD
Eukaryotic initiation factor 4A-III, sequence (P38919 whole entry): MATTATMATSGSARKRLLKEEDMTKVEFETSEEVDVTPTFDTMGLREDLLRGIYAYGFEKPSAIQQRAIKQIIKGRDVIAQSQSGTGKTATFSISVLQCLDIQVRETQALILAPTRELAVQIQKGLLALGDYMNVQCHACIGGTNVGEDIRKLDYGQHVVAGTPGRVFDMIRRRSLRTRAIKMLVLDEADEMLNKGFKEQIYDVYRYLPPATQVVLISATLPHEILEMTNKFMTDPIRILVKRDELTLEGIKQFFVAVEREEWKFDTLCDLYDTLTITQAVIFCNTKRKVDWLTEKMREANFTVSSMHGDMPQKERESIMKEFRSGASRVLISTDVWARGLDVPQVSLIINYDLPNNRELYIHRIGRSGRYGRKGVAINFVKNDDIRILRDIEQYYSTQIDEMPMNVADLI

Row | chromatographic logD [1] | IC50 [2] | Papp at 3 h, 10 µM [3] | solubility [4] | IC50 [5] | IC50 [6] | IC50 [7] | IC50 [8] | SMILES
1 | 1.9 | > 100 µM | 142 nm/s | 0.059 mg/mL (≈ 135 µM) | > 100 µM | 0.18 µM |  |  | O=C1Nc2cc(=O)n(Cc3ccccc3)cc2CN1c1cccc(OCc2cccnc2)c1
2 |  | > 100 µM |  |  | > 100 µM | 5.3 µM | > 100 µM |  | Cc1cc2c(cc1N1Cc3cn(Cc4ccccc4)c(=O)cc3NC1=O)OC(c1ncccc1F)CC2 (racemic)
3 |  |  |  |  |  | > 100 µM |  |  | Cc1cc2c(cc1N1Cc3cn(Cc4ccccc4)c(=O)cc3N(C)C1=O)OC(c1ncccc1F)CC2 (racemic)
4 | 1.7 | > 100 µM | 131 nm/s | 0.049 mg/mL (≈ 110 µM) | > 100 µM | 0.079 µM | > 100 µM | 1.3 µM | O=C1Nc2cc(=O)n(Cc3ccccc3)cc2CN1c1cccc(OCc2cncs2)c1
5 |  |  |  |  |  | > 100 µM |  |  | Cc1cc2c(cc1N1Cc3cn(C)c(=O)cc3NC1=O)OC(c1ncccc1F)CC2 (racemic)
6 | 2 |  | 273 nm/s | 0.069 mg/mL (≈ 157 µM) |  |  |  |  | O=C1Nc2cc(=O)n(Cc3ccccc3)cc2CN1c1cccc(OCc2ccccn2)c1
7 |  | 57 µM |  |  | 32 µM | 5.3 µM | 58 µM |  | N=C1/C(=C/c2ccc(-c3cccc(C(=O)O)c3)o2)C(=O)N=C2SC(C3CCCCC3)=NN12
